In data set [1] the test system is human subjects. Conditions: oral, human subjects [34]; cited from earlier work.
Data set [2] is described as follows: Viscoelasticity of cystic fibrosis sputum in vitro by magnetic rheometry. Details: species or system human. The following applies: final concentration 8 mg/ml in CF sputum. An excerpt:
FIG. 5 is a bar graph illustrating the effect of heparin and dextran sulfate on […] of sputum from 7 cystic fibrosis human patients as determined by magnetic rheometry, expressed as the average log G* over 1-100 rad/s after treatment with saline, heparin (MW 6000), Dextran Sulfate (MW 5000, about 17% sulphur by weight), heparin (dimer, highly (fully) sulfated, H-9267: C12H13NO19S3Na4), or heparin (dimer, low sulfate, partially de-sulfated H-9142, C12H18NO13SNa) to a final concentration of about 8 mg/ml (or […]) of sputum. […] The effect was similar to heparin, M.W. 6000.
Mucus Viscoelasticity Measurements: The magnetic microrheometer technique was used to measure the viscosity and elasticity of the dog mucus samples [21]. A […] steel ball was positioned in a 5-10 mL sample of mucus, and the motion of this sphere under the influence of an oscillating electromagnetic field gradient was used to determine the rheological properties of the mucus. The image of the steel ball was projected via a microscope onto a pair of photocells, whose output was amplified and transmitted to an oscilloscope. […]
(§1) The parameters of mucus viscoelasticity determined were the rigidity index or mechanical impedance, i.e. G*, reported here on a log scale, expressing the average vector sum of “viscosity+elasticity” over the frequency range 1-100 rad/s, and tan d, the mechanical loss tangent, expressing the ratio of viscous to elastic deformation. These viscoelastic parameters can be used to predict mucus clearability by ciliary and cough mechanisms, based on the measured Theological properties and observations of clearance from model studies.
(a) In vitro Sputum from 7 cystic fibrosis human patients were measured with regards to viscoelasticity after treatment with saline, heparin (MW˜6000), dextran sulfate (MW˜5000), heparin (dimer, highly sulfated), or heparin (dimer, de-sulfated) in accordance with the protocols for measuring viscoelasticity described in Example 1. […]

The test system of data set [3] is healthy mongrel dogs. In words: Tracheal transepithelial potential difference (PD) by agar bridge technique after aerosol. Format: in vivo, dog. The method, then:
(§2) Seven healthy mongrel dogs (6 male/1 female), weight 21-28 kg, with no respiratory tract bacterial infections, were studied. The dogs were anesthetized with sodium pentobarbital (ca 30 mg/kg i.v., supplemented as required) and intubated with a cuffed endotracheal tube. They were administered Ringer aerosol first, followed by 6.5 mg/ml dextran sulfate, 20 mg/ml dextran sulfate, and 65 mg/ml dextran sulfate by aerosol. Each aerosolization was of 30 minutes duration, with a rest period of 30 minutes before the beginning of the next aerosol delivery. The aerosols were generated and delivered by a Pari LC STAR nebulizer using an air flow rate of 8 l/min, which results in an output of 0.58 ml/min and particles of […] mass median diameter. The nebulizer was loaded in each case with 10 ml of solution. The amount of solution remaining in the nebulizer after 30 minutes was recorded. A T-tube connection was provided to the endotracheal tube during aerosol delivery to ensure a minimal deadspace for ventilation and adequate delivery of the aerosol. The dogs breathed spontaneously throughout the experiment.
(§3) Tracheal mucus velocity (TMV) and tracheal potential difference (PD) was measured, and mucus samples were collected for each concentration of delivered drug. TMV was measured twice for each dose, i.e. during aerosolization, between 15 and 25 minutes from the start of aerosol delivery (designated as period-1), and 10-20 minutes after completion of aerosolization (designated as period-2). PD was measured during the period 5 to 10 minutes following each aerosol. […]
Transepithelial Potential Difference (PD, -mV); PD was measured by using two flexible microelectrodes (agar bridges of PE 160 size) saturated with KCl connected to calomel half cells, one for reference and the other for testing. […] The PD value was recorded when a steady state, value was achieved and remained stable for a least 30 seconds. […]

In data set [4] the test system is healthy mongrel dogs. The data set can be described thus: Tracheal mucociliary velocity (TMV) by charcoal particle displacement. Format: in vivo, dog. The method, then: as §2, with “The dogs breathed spontaneously throughout the experiment.” left out
as §3
Tracheal Mucociliary Velocity (TMV, mm/min): TMV was determined by observing the rate of charcoal marker particle transport in the lower trachea. Under bronchoscopic visualization, ca, 5 mL of a charcoal suspension (Charac-50 diluted in Ringer's 1:10) was deposited on a lateral surface of the lower trachea 1-2 cm above the carina, and the rate of cephalad progression of the leading edge of the charcoal spot was monitored over the course of 10 minutes by gradually withdrawing the bronchoscope and recording its position relative to the endotracheal tube. […]

In data set [5] the test system is healthy mongrel dogs. In words: Tracheal mucus viscoelasticity by magnetic microrheometry after aerosol. Format: in vivo, dog. On the procedure: as §2
(§4) Tracheal mucus velocity (TMV) and tracheal potential difference (PD) was measured, and mucus samples were collected for each concentration of delivered drug. TMV was measured twice for each dose, i.e. during aerosolization, between 15 and 25 minutes from the start of aerosol delivery (designated as period-1), and 10-20 minutes after completion of aerosolization (designated as period-2). PD was measured during the period 5 to 10 minutes following each aerosol. Mucus was collected twice for each aerosol, once immediately after 30 minutes of aerosolization and a second time after an additional 30 minutes of spontaneous breathing.
All samples of dog mucus collected from endotracheal tubes were placed in 1.5 ml Eppendorf tubes for measurement of viscoelasticity by magnetic rheometry. After initial rheological testing, the mucus samples were preserved at −80° C. for subsequent analysis of collection rate and solids content.
Mucus Viscoelasticity Measurements: The magnetic microrheometer technique was used to measure the viscosity and elasticity of the dog mucus samples [21]. A […] steel ball was positioned in a 5-10 mL sample of mucus, and the motion of this sphere under the influence of an oscillating electromagnetic field gradient was used to determine the rheological properties of the mucus. The image of the steel ball was projected via a microscope onto a pair of photocells, whose output was amplified and transmitted to an oscilloscope. By plotting the displacement of the ball against the magnetic driving force, the viscoelastic properties of the mucus were ascertained.
as §1
(b) In vivo Seven healthy dogs were anesthetized, intubated and treated via aerosol with heparin sodium (MW 5000-6000) or dextran sulfate (MW 5000) and mucus viscoelasticity, transepithelial potential difference (PD) and tracheal mucus velocity (TMV) were determined, in accordance with the protocols described in Example 1 above. Non-lactated Ringer's solution was used as control. […] These changes were accompanied by a nonsignificant, upward trend in TMV, to approximately 130% of control. However, changes might be even more pronounced in animals with initially rigid mucus.

The test system of data set [6] is healthy mongrel dogs. The data set can be described thus: Mucus collection weight (MCW) by endotracheal tube method. Format: in vivo, dog. The method, then: as §2, §4
Mucus Collection Weight (MCW, mg/30 min): Tracheal mucus was collected by the endotracheal tube (ETT) method, which involves the removal of mucus adherent to the ETT after extubation. Mucus collections were performed twice after each aerosol, once by immediately removing the ETT following aerosol inhalation, and the second 30 minute after inhalation, after re-installing a clean ETT The mucus samples, which had been frozen, were thawed and weighed by microbalance, to determine MCW, an index of flux, and indirectly of the rate of secretion.

Data set [7] concerns healthy mongrel dogs. In words: Solids content (% SC) of collected airway secretion. Format: in vivo, dog. On the procedure: as §2, §3
Solids content (wet:dry weight ratio): A drying apparatus and microbalance were used to calculate the dry weight and wet weight of the collected secretion, from which the percent solids content (% SC) was calculated. […] These dried samples were then reweighed, and % SC was calculated from ratio of dry to wet weight.

The test system of data set [8] is healthy mongrel dogs. The data set can be described thus: Tolerability / toxic effects of aerosol inhalation in dogs. Format: in vivo, dog.
Description: Seven healthy mongrel dogs (6 male/1 female), weight 21-28 kg, with no respiratory tract bacterial infections, were studied. The dogs were anesthetized with sodium pentobarbital (ca 30 mg/kg i.v., supplemented as required) and intubated with a cuffed endotracheal tube. They were administered Ringer aerosol first, followed by 6.5 mg/ml dextran sulfate, 20 mg/ml dextran sulfate, and 65 mg/ml dextran sulfate by aerosol. Each aerosolization was of 30 minutes duration, with a rest period of 30 minutes before the beginning of the next aerosol delivery. The aerosols were generated and delivered by a Pari LC STAR nebulizer using an air flow rate of 8 l/min, which results in an output of 0.58 ml/min and particles of 2.0 mm mass median diameter. The nebulizer was loaded in each case with 10 ml of solution. The amount of solution remaining in the nebulizer after 30 minutes was recorded. A T-tube connection was provided to the endotracheal tube during aerosol delivery to ensure a minimal deadspace for ventilation and adequate delivery of the aerosol. The dogs breathed spontaneously throughout the experiment.

Turning to “dextran sulfate [dextran sulfate (m.w. 7000)]”, in data set [1], the absorbability result is given as “poor absorbablity”, the anticoagulant effect entry was “little anticoagulant effect” and the other safety concerns result was “no other apparent safety concerns”.

Consider `N[C@H]1C(O)O[C@H](CO)[C@@H](O[C@@H]2OC(C(=O)O)=C[C@H](O)[C@H]2OS(=O)(=O)O)[C@@H]1O` (stereo partly shown) [de-sulfated heparin dimer], for which the “viscoelasticity (average log G* over 1-100 rad/s) compared to saline control” value in data set [2] is recorded as “no significant improvement”.

Regarding Dextran sulfate, sodium salt [DexSO4], the “mean increase in PD (maximal change)” value in data set [3] (65 mg/ml aerosol, vs Ringer control) was 9.86 mV. Moreover, in data set [3] (after 30-minute aerosol at 6.5, 20 and 65 mg/ml, 7 dogs), the “PD compared with Ringer control” value is recorded as “increased significantly”. Further, the “TMV, % of baseline” value in data set [4] (6.5 mg/ml aerosol (first dose), non-significant, p=0.066) was 128 % of baseline. The “change in mucociliary velocity (TMV)” value in data set [4] (aerosol 6.5-65 mg/ml, during and after aerosolization) was “no significant change”. For the same compound, the “mucus recoil parameter, tan d” value in data set [5] (aerosol 6.5-65 mg/ml) is “no significant changes”. Moreover, the “average log G* compared with respective Ringer control” value in data set [5] (aerosol at 6.5 and 65 mg/ml) is “significant decrease”. In data set [5] (during 65 mg/ml aerosol), the “decrease in G* expressed as a factor” value is recorded as 2.61. Also, the “mean decrease in average log G* (1-100 rad/s)” value in data set [5] (during 65 mg/ml aerosol, vs Ringer, p=0.021) was determined as 0.42 log units. For the same compound, the “effective concentration range relative to neutral dextran (reduced viscoelastic modulus, predicted clearance)” value in data set [5] (in vivo, healthy dog mucus) is recorded as “half-log lower concentration range”. For the same compound, the “mucus collection weight (MCW, mg/30 min)” value in data set [6] (6.5 mg/ml-1 (collected immediately after aerosol), wet weight) is 4.35 ± 0.67 mg; in data set [6] (20 mg/ml-1, wet weight), 4.47 ± 0.59 mg; in data set [6] (65 mg/ml-1, wet weight) it was 5.64 ± 1.14 mg. Further, the “change in mucus collection weight with increasing concentration” value in data set [6] (6.5-65 mg/ml aerosol) was “no change”. Besides, the “solids content (% SC) of collected fluid” value was 9.27±1.02% in data set [7] (65 mg/ml-1 (Ringer-1: 6.16±0.20%), p=0.042) and 10.78% in data set [7] (65 mg/ml-2 (Ringer-2: 6.87±0.92%), p=0.009). Moreover, the “effect on mucus % solids content” value in data set [7] (increasing concentrations 6.5, 20, 65 mg/ml) was “significant increase”. The bronchial mucosal appearance entry in data set [8] (aerosol 6.5, 20, 65 mg/ml) is given as “remained normal”. In data set [8] (aerosol 6.5, 20, 65 mg/ml, 30 min each, all seven dogs), the “cough or other side effects during inhalation” value is given as “without significant cough or other side effects”. Also, the toxic effects result in data set [8] (present study, aerosol in dogs) is recorded as “no toxic effects”.

As for heparin [heparin, MW 6000], the “viscoelasticity (average log G* over 1-100 rad/s) compared to saline control” value in data set [2] is given as “similar”.

Turning to heparin sodium [reference compound], in data set [3] (6.5 mg/ml aerosol, significant decrease, Ringer control), the “PD, % of control” value is given as 55.1 % of control. Also, the “TMV, % of control” value in data set [4] (6.5 mg/ml aerosol, nonsignificant upward trend) is given as “approximately 130 % of control”. Further, the “mucus viscoelasticity (G*), % of control” value in data set [5] (6.5 mg/ml aerosol, significantly decreased) was 36 % of control.

As for `O=C(O)C1=C[C@H](O)[C@@H](OS(=O)(=O)O)[C@H](O[C@H]2[C@H](O)[C@@H](NS(=O)(=O)O)C(O)O[C@@H]2COS(=O)(=O)O)O1` (stereo partly shown) [highly sulfated heparin dimer], the “viscoelasticity (average log G* over 1-100 rad/s) compared to saline control” value in data set [2] is “significant decrease in viscoelasticity”.

These data come from US20040224922A1, “Use of charged dextran as a mucoactive agent and methods and pharmaceutical compositions relating thereto” (priority 1999, published 2004).
